Experimental data as given in US20210238225A1, “PEPTIDOMIMETIC INHIBITORS OF THE PEPTIDYL-PROLYL CIS/TRANS ISOMERASE (PIN1)” (DANA-FARBER CANCER INSTITUTE, INC., priority 2018, published 2021).
Entries after “also recorded” stand apart in the source; their conditions may differ. Like-named read-outs stand apart in the source and are kept apart here. Non-standard residues stand in square brackets, D forms with d. Residues, ends and D or L forms follow the SMILES beside them. *: point of attachment. Biotinyl(3aR,4R,6aS) = O=C1N[C@@H]2[C@@H](CS[C@@H]2CCCCC(=O)*)N1; Phe(4-F) = N[C@@H](Cc1ccc(F)cc1)C(=O)O; 2Nal = N[C@@H](Cc1ccc2ccccc2c1)C(=O)O; X2 = C[C@H]1NC(=O)N[C@H]1CCCCCC(=O)*; NH(4-Me-benzyl) = Cc1ccc(CN*)cc1; NMeF = CN[C@@H](Cc1ccccc1)C(=O)O; Cit = NC(=O)NCCC[C@H](N)C(=O)O; Pip = O=C(O)[C@@H]1CCCCN1; ClAc = O=C(CCl)*

Assays:
Pin1 [1] = target: T1, Pin1 (Homo sapiens, UniProt Q13526); assay: Cellular target engagement, live cell biotin competition assay in TNBC MDA-MB-231 cells; format: cell-based; set-up: endogenous in cells; host or cells: MDA-MB-231; conditions: TNBC MDA-MB-231 cells; for Cellular Target Engagement?: 5 hours treatment, concentration under E7; for Cellular Target Engagement? concentration stated for complete engagement: read with the E6 line
T1 sequence (Q13526 whole entry): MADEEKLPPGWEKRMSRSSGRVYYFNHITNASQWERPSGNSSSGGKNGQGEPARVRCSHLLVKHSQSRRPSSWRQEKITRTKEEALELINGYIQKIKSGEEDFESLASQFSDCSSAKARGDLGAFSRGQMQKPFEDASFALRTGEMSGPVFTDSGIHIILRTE
Protocol: TNBC MDA-MB-231 cells were plated in 10 cm plates with 2.5 million cells per plate in 6 mL of media. The day after plating, cells were treated with the indicated concentrations of compound 18 for 5 hours. The cells were washed 2× with 0.9% NaCl (1 mL per 10 cm plate), and collected by scraping with a cell scraper. Cells were lysed in lysis buffer (50 mM Hepes pH 7.5, 150 mM NaCl, 1 mM EDTA, 10% v/v glycerol, 0.5% v/v […], protease inhibitors (Roche)) using 210 μL of cell lysis buffer per 10 cm plate of cells. After clarifying by centrifugation (14,000 rpm for 15 min at 4° C.), 5 μL of each lysate sample was combined with 5 μL of 2× LDS+10% β-mercaptoethanol, boiled for 5 minutes, and set aside for the input loading control (later to be loaded directly in the gel). Then, 200 μL of each lysate was then incubated with 1 μM of compound 2-32 (biotin probe compound) for 1 hour at 4° C. Lysates were then incubated with streptavidin agarose resin (30 μL of 1:1 beads: lysis buffer slurry) (Thermo Scientific™, cat. #20349) for 2 hours at 4° C. Beads were washed 4 times with 500 μL of washing buffer (50 mM Hepes, pH7.5, 10 mM NaCl, 1 mM EDTA, 10% glycerol), then pelleted by centrifugation and dried. The beads were then boiled at 95° C. for 5 minutes in 30 μL of 2× LDS+10% β-mercaptoethanol. Lysates were probed for specified proteins by western blotting using the Bolt system (Life Technologies™).

Pin1 (GST-Pin1) = Pin1 (GST-Pin1) (Homo sapiens, UniProt Q13526); assay: Fluorescence polarization (FP) assay, binding to Pin1
Pin1 (GST-Pin1), sequence (Q13526 whole entry): as above

Pin1 [2] = target: T1, Pin1; assay: Lysate target engagement (pull down with biotinylated probes; competition assay); format: binding; set-up: endogenous in cells; host or cells: MDA-MB-231; conditions: for Lysate Target Engagement?: TNBC-MDA-MB-231 lysate, biotin/dtb probes: pull down, others: competition, concentration under E5; for Lysate Target Engagement? concentration stated for the engagement or pull down: read with the E4 line of the same compound (complete, partial, probe pull down); for pull down of Pin1 from lysate (FIG. 5A): 1 μM
Protocol: (§1) TNBC-MDA-MB-231 cells were lysed in lysis buffer (50 mM Hepes pH 7.5, 150 mM NaCl, 1 mM ethylenediaminetetraacetic acid (EDTA), 10% v/v glycerol, 0.5% v/v NP-40, protease inhibitors (Roche)). After clarifying by centrifugation (14,000 rpm for 15 min at 4° C.), lysates were incubated with the indicated concentrations of candidate compound for 1 hour at 4° C. (500 μg of protein per sample, as determined by BCA). Lysates were then incubated with streptavidin agarose resin (30 μL of 1:1 beads: lysis buffer slurry) (Thermo Scientific™, cat. #20349) for 2 hours at 4° C. Beads were washed 4 times with 500 μL of washing buffer (50 mM Hepes, pH 7.5, 10 mM NaCl, 1 mM EDTA, 10% glycerol), then pelleted by centrifugation and dried. The beads were then boiled at 95° C. for 5 minutes in 30 μL of 2× LDS+10% β-mercaptoethanol. Lysates were probed for specified proteins by western blotting using the Bolt system (Life Technologies™).
as §1, with “mM EDTA,” for “mM ethylenediaminetetraacetic acid (EDTA),”, “by centrifugation,” for “by centrifugation (14,000 rpm for 15 min at 4° C.),”, “were pre-incubated” for “were incubated”, “of” for “of candidate”, “compound 18 overnight” for “compound for 1 hour”, “BCA). The lysates were then incubated with 1 μM of compound 2c (desthiobiotin probe) for 1 hour at 4° C.” for “BCA).”

[3] = competition with fluorescein-labeled peptide probe, 12 hours pre-incubation at 4° C., Kenakin Ki equation, read-out: Ki, μM (FP Assay)
[4] = Ki quoted in figure legend, assay not named
[5] = Ki, μM (FP Assay), competition with fluorescein-labeled peptide probe, 12 hours pre-incubation at 4° C., Kenakin Ki equation

SMILES	Cellular Target Engagement? (Pin1 [1])	Ki (Pin1 (GST-Pin1); [3])	Lysate Target Engagement? (Pin1 [2])	Lysate Target Engagement? concentration stated for the engagement or pull down (Pin1 [2])	other results
NC(=O)[C@H](Cc1ccc(O)cc1)NC(=O)[C@H](Cc1ccc2ccccc2c1)NC(=O)[C@@H]1CCCCN1C(=O)[C@H](CCC(=O)O)NC(=O)CCl [Compound 2-6, (S)-5-((S)-2-(((S)-1-(((S)-1-Amino-3-(4-hydroxyphenyl)-1-oxopropan-2-yl)amino)-3-(naphthalen-2-yl)-1-oxopropan-2-yl)carbamoyl)piperidin-1-yl)-4-(2-chloroacetamido)-5-oxopentanoic acid] (ClAc-E[Pip][2Nal]Y-NH2)	No	0.28 µM			
COC(=O)CC[C@H](NC(=O)CCl)C(=O)N1CCCC[C@H]1C(=O)N[C@@H](Cc1c[nH]c2ccccc12)C(=O)N[C@@H](Cc1ccc(O)cc1)C(N)=O [Compound 2-22, Methyl (S)-5-((S)-2-(((S)-1-(((S)-1-Amino-3-(4-hydroxyphenyl)-1-oxopropan-2-yl)amino)-3-(1H-indol-3-yl)-1-oxopropan-2-yl)carbamoyl)piperidin-1-yl)-4-(2-chloroacetamido)-5-oxopentanoate] (ClAc-E(OMe)[Pip]WY-NH2)		0.154 µM	Yes-partial	at 10 μM	
C[C@H](NC(=O)[C@H](C)NC(=O)[C@H](CCCNC(N)=O)NC(=O)[C@H](Cc1c[nH]c2ccccc12)NC(=O)[C@@H]1CCCCN1C(=O)[C@H](CCC(=O)O)NC(=O)CCl)C(=O)N[C@@H](CCCCNC(=O)CCCC[C@H]1SC[C@H]2NC(=O)N[C@H]21)C(N)=O [Compound 2-25, (S)-5-((S)-2-(((2S,5S,8S,11S)-14-Carbamoyl-1-(1H-indol-3-yl)-8,11-dimethyl-3,6,9,12,20-pentaoxo-24-((3aR,4R,6aS)-2-oxohexahydro-1H-thieno[3,4-d]imidazol-4-yl)-5-(3-ureidopropyl)-4,7,10,13,19-pentaazatetracosan-2-yl)carbamoyl)piperidin-1-yl)-4-(2-chloroacetamido)-5-oxopentanoic acid] (ClAc-E[Pip]W[Cit]AAK(Biotinyl(3aR,4R,6aS))-NH2)			Yes-(Biotin	at 1 μM	pull down of Pin1 from lysate (FIG. 5A) (Pin1 [2]; TNBC MDA-MB-231 lysate): able to pull down Pin1; also recorded: pulled down Pin1; Ki (Pin1 (GST-Pin1); read-out: Ki quoted in figure legend, assay not named): 0.02 µM
C[C@H](NC(=O)[C@H](C)NC(=O)[C@H](CCCNC(N)=O)NC(=O)[C@H](Cc1c[nH]c2ccccc12)NC(=O)[C@@H]1CCCCN1C(=O)[C@@H](CCC(=O)O)NC(=O)CCl)C(=O)N[C@@H](CCCCNC(=O)CCCC[C@H]1SC[C@H]2NC(=O)N[C@H]21)C(N)=O [Compound 2-30, (R)-5-((S)-2-(((2S,5S,8S,11S)-14-Carbamoyl-1-(1H-indol-3-yl)-8,11-dimethyl-3,6,9,12,20-pentaoxo-24-((3aR,4R,6aS)-2-oxohexahydro-1H-thieno[3,4-d]imidazol-4-yl)-5-(3-ureidopropyl)-4,7,10,13,19-pentaazatetracosan-2-yl)carbamoyl)piperidin-1-yl)-4-(2-chloroacetamido)-5-oxopentanoic acid] (ClAc-[dE][Pip]W[Cit]AAK(Biotinyl(3aR,4R,6aS))-NH2)		1.6 µM			pull down of Pin1 from lysate (FIG. 5A) (Pin1 [2]; TNBC MDA-MB-231 lysate): unable to pull down Pin1; also recorded: did not
CN(C(=O)CCl)[C@@H](Cc1ccccc1)C(=O)N1CCCC[C@H]1C(=O)N[C@@H](Cc1c[nH]c2ccccc12)C(=O)N[C@@H](CCCNC(N)=O)C(=O)N[C@@H](CCCCNC(=O)CCCC[C@H]1SC[C@H]2NC(=O)N[C@H]21)C(N)=O [Compound 2-32, (S)—N—((S)-1-(((S)-1-(((S)-1-Amino-1-oxo-6-(5-((3aR,4R,6aS)-2-oxohexahydro-1H-thieno[3,4-d]imidazol-4-yl)pentanamido)hexan-2-yl)amino)-1-oxo-5-ureidopentan-2-yl)amino)-3-(1H-indol-3-yl)-1-oxopropan-2-yl)-1-(N-(2-chloroacetyl)-N-methyl-L-phenylalanyl)piperidine-2-carboxamide] (ClAc-[NMeF][Pip]W[Cit]K(Biotinyl(3aR,4R,6aS))-NH2)			Yes-(Biotin	at 0.5 μM	pull down of Pin1 from lysate (FIG. 5B) (Pin1 [2]; TNBC MDA-MB-231 lysate, 500 nM and 1 μM): able to pull down Pin1; also recorded: pulled down Pin1; Ki (Pin1 (GST-Pin1); [4]): 0.018 µM; Ki (Pin1 (GST-Pin1); [5]): 0.018 µM
C[C@H]1NC(=O)N[C@H]1CCCCCC(=O)NCCCC[C@H](NC(=O)[C@H](CCCNC(N)=O)NC(=O)[C@H](Cc1c[nH]c2ccccc12)NC(=O)[C@@H]1CCCCN1C(=O)[C@H](Cc1ccccc1)N(C)C(=O)CCl)C(N)=O [Compound 2c, (S)—N—((S)-1-(((S)-1-(((S)-1-Amino-6-(6-((4S,5R)-5-methyl-2-oxoimidazolidin-4-yl)hexanamido)-1-oxohexan-2-yl)amino)-1-oxo-5-ureidopentan-2-yl)amino)-3-(1H-indol-3-yl)-1-oxopropan-2-yl)-1-(N-(2-chloroacetyl)-N-methyl-L-phenylalanyl)-piperidine-2-carboxamide] (ClAc-[NMeF][Pip]W[Cit]K(X2)-NH2)			Yes-(dtb	at 0.5 μM	Ki (Pin1 (GST-Pin1); [4]): 0.015 µM
Cc1ccc(CNC(=O)[C@H](CCCNC(N)=O)NC(=O)[C@H](Cc2c[nH]c3ccccc23)NC(=O)[C@@H]2CCCCN2C(=O)[C@H](Cc2ccccc2)N(C)C(=O)CCl)cc1 [Compound 11, (S)—N—((S)-3-(1H-indol-3-yl)-1-(((S)-1-((4-methylbenzyl)amino)-1-oxo-5-ureidopentan-2-yl)amino)-1-oxopropan-2-yl)-1-(N-(2-chloroacetyl)-N-methyl-L-phenylalanyl)piperidine-2-carboxamide] (ClAc-[NMeF][Pip]W[Cit]-{NH(4-Me-benzyl)})	Yes-	0.01 µM			Cellular Target Engagement? concentration stated for complete engagement (Pin1 [1]): at 5 μM
COC(=O)CC[C@H](NC(=O)CCl)C(=O)N1CCCC[C@H]1C(=O)N[C@@H](Cc1c[nH]c2ccccc12)C(=O)N[C@@H](Cc1ccc(F)cc1)C(=O)NCc1ccc(C)cc1 [Compound 11-3, Methyl (S)-4-(2-chloroacetamido)-5-((S)-2-(((S)-1-(((S)-3-(4-fluorophenyl)-1-((4-methylbenzyl)amino)-1-oxopropan-2-yl)amino)-3-(1H-indol-3-yl)-1-oxopropan-2-yl)carbamoyl)piperidin-1-yl)-5-oxopentanoate] (ClAc-E(OMe)[Pip]W[Phe(4-F)]-{NH(4-Me-benzyl)})	Yes-Complete				Cellular Target Engagement? concentration stated for complete engagement (Pin1 [1]): at 15 μM; Ki (Pin1 (GST-Pin1); [5]): 0.19 µM
